Experimental data from PMC12858405, “Ideal efficacy photoswitching for chromocontrol of TRPC4/5 channel functions in live tissues” (Nature Chemical Biology, 2026).

Target: T1, TRPC4β-SYFP2 (Homo sapiens, UniProt Q9UBN4)
T1 construct: expressed in transfected cells; host or cells: HEK 293 (ATCC CRL 1573), transiently transfected (jetPRIME)
T1 sequence (Q9UBN4 1-893 isoform Q9UBN4-2): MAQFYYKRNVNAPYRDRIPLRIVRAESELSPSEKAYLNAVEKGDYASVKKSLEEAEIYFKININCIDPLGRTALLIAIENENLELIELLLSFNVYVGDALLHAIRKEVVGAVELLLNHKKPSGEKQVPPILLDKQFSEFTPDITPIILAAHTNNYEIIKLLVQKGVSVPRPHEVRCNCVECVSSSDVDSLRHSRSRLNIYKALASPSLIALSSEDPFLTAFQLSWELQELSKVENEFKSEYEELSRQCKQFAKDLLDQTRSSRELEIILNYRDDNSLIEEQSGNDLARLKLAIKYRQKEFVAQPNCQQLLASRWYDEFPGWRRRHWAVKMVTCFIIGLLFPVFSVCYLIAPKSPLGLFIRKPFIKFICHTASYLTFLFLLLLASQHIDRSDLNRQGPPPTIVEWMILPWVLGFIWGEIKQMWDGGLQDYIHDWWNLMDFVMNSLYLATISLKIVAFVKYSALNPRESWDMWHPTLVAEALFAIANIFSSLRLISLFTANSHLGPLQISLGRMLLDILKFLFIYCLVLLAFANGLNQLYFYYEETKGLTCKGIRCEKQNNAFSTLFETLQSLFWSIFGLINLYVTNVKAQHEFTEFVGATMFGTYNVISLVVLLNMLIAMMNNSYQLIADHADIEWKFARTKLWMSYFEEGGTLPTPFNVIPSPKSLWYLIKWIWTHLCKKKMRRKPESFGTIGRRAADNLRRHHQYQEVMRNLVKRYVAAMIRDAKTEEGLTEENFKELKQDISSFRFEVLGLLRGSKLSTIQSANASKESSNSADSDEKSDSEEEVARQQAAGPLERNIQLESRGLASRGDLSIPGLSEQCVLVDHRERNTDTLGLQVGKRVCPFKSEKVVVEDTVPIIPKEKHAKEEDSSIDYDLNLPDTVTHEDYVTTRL
Assay: Fura-2 [Ca2+]i recordings, HEK 293 transiently expressing TRPC4β-SYFP2
Type: cell-based
Details: AzHC 10-1000 nM, AM237 100 nM
Description: Müller, Niemeyer, et al., Schaefer & Thorn-Seshold 2025: Ideal Efficacy Photoswitching of TRPC4/5 in Tissue […]
1.4.4 Differences and selectivity between TRPC5 and TRPC4?
AM237 activates TRPC5 but inhibits EA mediated activation of TRPC4; Pico145 inhibits both TRPC4 and TRPC5. Thus, somewhat naively, it could be argued that it is the para substituent here which affects both the efficacy mode and the selectivity for TRPC4 and/or TRPC5.
Intriguingly, Z-AzPico activates TRPC4 and TRPC5 with low nanomolar potency whereas Z-AzHC only activates TRPC5 but not TRPC4. Therefore, the meta substituent is now responsible for the selectivity in this case. The cryo-EM structures of Pico145 and HC-070 in complex with TRPC5 indicated the same binding site but the southern phenyl ring bearing the OCF3/Cl group is flipped and pointing in opposite directions.
Z isomers, i.e. Z-buried vs. E-projected. Additionally, both E-AzPico and E-AzHC inhibit EA […]
It is not surprising that both ligands bind to either protein because there is a high sequence similarity among the TRPC family in the identified binding pocket for Pico145 /HC-070, and in the binding region, human TRPC4/5 differ only by a single amino acid (TRPC5: V579, TRPC4: I579). We […]
the result of differences in this residue. […]
Intracellular calcium ([Ca2+]i) was measured using the ratiometric Ca2+ dye Fura-2. […]

## Cn1c(=O)n(CCCO)c(=O)c2c1nc(Oc1ccc(Cl)c(OC(F)(F)F)c1)n2Cc1ccc(Cl)cc1 [AM237, reference compound]
  Effect on [Ca2+]i, TRPC4: do not activate

## Cn1c(=O)n(CCCO)c(=O)c2c1nc(Oc1ccc(/N=N\c3ccccc3)c(Cl)c1)n2Cc1ccc(Cl)cc1 [Z*-AzHC]
  Effect on [Ca2+]i, TRPC4: do not activate
